Results: patent publication US20160122307A1, “PERHYDROQUINOXALINE DERIVATIVES” (DR. AUGUST WOLFF GMBH & CO. KG ARZNEIMITTEL, priority 2013, published 2016)
Like-named read-outs stand apart in the source and are kept apart here.

Molecular target: Human opiate κ receptors (Homo sapiens, UniProt P41145)
Test: κ opioid receptor functional assay, [35S]GTPγS binding (assay C)
Type: biochemical
Conditions: for activation at 1 µM: 0.5 h, read-out: % activation functional assay at 1 μM
[1] = read-out: EC50 (nM) [35S]GTPγS binding

Human opiate κ receptors, sequence (P41145 whole entry): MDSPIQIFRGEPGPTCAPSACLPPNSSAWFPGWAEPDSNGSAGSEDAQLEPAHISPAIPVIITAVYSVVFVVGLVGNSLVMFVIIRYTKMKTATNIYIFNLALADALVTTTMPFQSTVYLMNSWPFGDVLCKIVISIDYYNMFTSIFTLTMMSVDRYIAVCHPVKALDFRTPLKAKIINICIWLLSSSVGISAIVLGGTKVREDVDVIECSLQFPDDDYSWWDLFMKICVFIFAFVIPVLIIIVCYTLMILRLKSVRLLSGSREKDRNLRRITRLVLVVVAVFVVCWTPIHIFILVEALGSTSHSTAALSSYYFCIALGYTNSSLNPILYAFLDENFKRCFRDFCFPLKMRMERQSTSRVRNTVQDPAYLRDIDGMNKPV

SMILES | activation at 1 µM | EC50 (GTPγS EC50 (nM)) | other results
COC(=O)COC(=O)N1CCN(C(=O)Cc2ccc(Cl)c(Cl)c2)C2C(N3CCCC3)CCCC21 (racemic) [Example 67] | 106% | < 10 nM | –
NC(=O)COC(=O)N1CCN(C(=O)Cc2ccc(Cl)c(Cl)c2)C2C(N3CCCC3)CCCC21 (racemic) [Example 68] | 104% | 10 to 100 nM | –
O=C(O)COC(=O)N1CCN(C(=O)Cc2ccc(Cl)c(Cl)c2)C2C(N3CCCC3)CCCC21 (racemic) [Example 69] | 101% | 10 to 100 nM | –
COC(=O)N1CCN(C(=O)Cc2ccc(Cl)c(Cl)c2)C2C(N3CC(O)C3)CCCC21 (racemic) [Example 71] | – | – | % activation functional assay at 1 μM: 113%; EC50 (read-out: GTPγS EC50): 10 to 100 nM
Cl.Cl.Cl.O=C(Cc1ccc(Cl)c(Cl)c1)N1CCN(c2cccnc2)C2CCCC(N3CCCC3)C21 (racemic) [Example 72] | – | – | % activation functional assay at 1 μM: 106%; EC50 (read-out: GTPγS EC50): < 10 nM
COC(=O)CNC(=O)N1CCN(C(=O)Cc2ccc(Cl)c(Cl)c2)C2C(N3CCCC3)CCCC21 (racemic) [Example 75] | 113% | < 10 nM | –
NC(=O)CNC(=O)N1CCN(C(=O)Cc2ccc(Cl)c(Cl)c2)C2C(N3CCCC3)CCCC21 (racemic) [Example 76] | 106% | 10 to 100 nM | –
O=C(O)CNC(=O)N1CCN(C(=O)Cc2ccc(Cl)c(Cl)c2)C2C(N3CCCC3)CCCC21 (racemic) [Example 77] | 98% | 10 to 100 nM | –
O=C(C1CCNC1)N1CCN(C(=O)Cc2ccc(Cl)c(Cl)c2)C2C(N3CCCC3)CCCC21 (racemic) [Example 78] | 64% | 100 to 1000 nM | –
O=C(C=Cc1ccoc1)N1CCN(C(=O)Cc2ccc(Cl)c(Cl)c2)C2C(N3CCCC3)CCCC21 (racemic) [Example 79] | 102% | – | –
O=C(C1CCCN1)N1CCN(C(=O)Cc2ccc(Cl)c(Cl)c2)C2C(N3CCCC3)CCCC21 (racemic) [Example 80] | 76% | 100 to 1000 nM | –
O=C(c1ncccn1)N1CCN(C(=O)Cc2ccc(Cl)c(Cl)c2)C2C(N3CCCC3)CCCC21 (racemic) [Example 82] | 97% | – | –
O=C(c1ncccn1)N1CCN(C(=O)Cc2ccc(Cl)c(Cl)c2)C2C(N3CCCC3)CCCC21 (racemic) [Example 83] | – | – | % activation functional assay at 1 μM: 111%
COC(=O)c1ccc(C(=O)N2CCN(C(=O)Cc3ccc(Cl)c(Cl)c3)C3C(N4CCCC4)CCCC32)nc1 (racemic) [Example 85] | 101% | – | –
COC(=O)c1cccc(C(=O)N2CCN(C(=O)Cc3ccc(Cl)c(Cl)c3)C3C(N4CCCC4)CCCC32)c1 (racemic) [Example 86] | 86% | – | –
NC(=O)c1ccc(C(=O)N2CCN(C(=O)Cc3ccc(Cl)c(Cl)c3)C3C(N4CCCC4)CCCC32)cc1 (racemic) [Example 87] | 109% | – | –
COC(=O)N1CCN(C(=O)Cc2ccc(Cl)c(Cl)c2)C2C(N3CCC(O)CC3)CCCC21 (racemic) [Example 88] | – | – | % activation functional assay at 1 μM: 107%; EC50 (read-out: GTPγS EC50): < 10 nM
O=C(Cc1ccc(Cl)c(Cl)c1)N1CCN(Cc2ccccc2)[C@@H]2CCC[C@H](N3CCCC3)[C@H]21 (racemic) [H, reference compound] | – | – | activation (% of control) at 1 μM: 97 % of control; EC50 (EC50 (nM) [35S]GTPγS binding): 29 nM
CCOC(=O)N1CCN(C(=O)Cc2ccc(Cl)c(Cl)c2)C2C(N3CCCC3)CCCC21 (racemic) [O, reference compound] | – | – | activation (% of control) at 1 μM: 88 % of control; EC50 [1]: 150 nM
COC(=O)CCC(=O)N1CCN(C(=O)Cc2ccc(Cl)c(Cl)c2)[C@H]2[C@H]1CCC[C@@H]2N1CCCC1 (racemic) [Q, reference compound] | – | – | EC50: 530 nM; activation (% of control) at 1 μM: 61 % of control
COC(=O)N1CCN(C(=O)Cc2ccc(Cl)c(Cl)c2)[C@H]2[C@H](N3CCCC3)CCC[C@@H]21 (racemic) [Reference compound B, reference compound] | 90% | – | activation (% of control) at 1 μM: 90 % of control
COC(=O)N1CCN(C(=O)Cc2ccc(Cl)c(Cl)c2)[C@@H]2[C@H]1CCC[C@@H]2N1CCCC1 (racemic) [Reference compound E, reference compound] | 68% | – | –
O=C(Cc1ccc(Cl)c(Cl)c1)N1CCN(Cc2cccnc2)[C@@H]2CCC[C@H](N3CCCC3)[C@H]21 (racemic) [Y, reference compound] | – | – | activation (% of control) at 1 μM: 96 % of control; EC50 (EC50 (nM) [35S]GTPγS binding): 34 nM
COC(=O)N1CCN(C(=O)Cc2ccc(Cl)c(Cl)c2)[C@H]2[C@H](N3CCCC3)CCC[C@H]21 (single isomer, unassigned) [Reference compound A, reference compound] | 51% | – | –
COC(=O)N1CCN(C(=O)Cc2ccc(Cl)c(Cl)c2)[C@H]2[C@H](N3CCCC3)CCC[C@@H]21 (single isomer, unassigned) [Reference compound C, reference compound] | 85% | – | –
COC(=O)N1CCN(C(=O)Cc2ccc(Cl)c(Cl)c2)[C@H]2[C@H]1CCC[C@@H]2N1CCCC1 (single isomer, unassigned) [Reference compound D, reference compound] | 92% | – | –

SMILES | activation at 1 µM | EC50 (GTPγS EC50 (nM)) | other results
O=C(Cc1ccc(Cl)c(Cl)c1)N1CCN(Cc2cnc[nH]2)C2CCCC(N3CCCC3)C21 (centres unmarked) [AA, reference compound] | – | – | activation (% of control) at 1 μM: 89 % of control; EC50 [1]: 56 nM
COC(=O)N1CCN(C(=O)Cc2ccc(Cl)c(Cl)c2)C2C(N3CCC(O)C3)CCCC21 (centres unmarked) [Example 11] | 92% | 10 to 100 nM | activation (% of control) at 1 μM (1 µM): 92 % of control; EC50 (EC50 (nM) [35S]GTPγS binding): 11.7 nM
COC(=O)N1CCN(C(=O)Cc2ccc(Cl)c(Cl)c2)C2C(N3CCC(O)C3)CCCC21 (centres unmarked) [Example 53] | – | < 10 nM | % activation functional assay at 1 μM: 97%; activation (% of control) at 1 μM (1 µM): 97 % of control; EC50 (EC50 (nM) [35S]GTPγS binding): 6.1 nM
COC(=O)N1CCN(C(=O)Cc2ccc(Cl)c(Cl)c2)[C@@H]2[C@@H](N(C)C)CCC[C@@H]21 [Example 90] | 96% | < 10 nM | –
CCN(C)[C@H]1CCC[C@H]2[C@@H]1N(C(=O)Cc1ccc(Cl)c(Cl)c1)CCN2C(=O)OC [Example 91] | 106% | < 10 nM | –
COC(=O)N1CCN(C(=O)Cc2ccc(F)c(Cl)c2)[C@@H]2[C@@H](N3CCCC3)CCC[C@@H]21 [Example 92] | 105% | 10 to 100 nM | –
COC(=O)N1CCN(C(=O)Cc2ccc(C(F)(F)F)c(Cl)c2)[C@@H]2[C@@H](N3CCCC3)CCC[C@@H]21 [Example 93] | 101% | < 10 nM | –
COC(=O)N1CCN(C(=O)Cc2ccc(Cl)c(F)c2)[C@@H]2[C@@H](N3CCCC3)CCC[C@@H]21 [Example 94] | 103% | 10 to 100 nM | –
Cl.O=C(OCc1ccccc1)N1CCN(C(=O)Cc2ccc(Cl)c(Cl)c2)C2C(N3CCCC3)CCCC21 (centres unmarked) [Example 95] | – | – | % activation functional assay at 1 μM: 104%; EC50 (read-out: GTPγS EC50): < 10 nM
COC(=O)N1CCN(C(=O)Cc2ccc(Cl)c(Cl)c2)[C@@H]2[C@@H](N3CC[C@@H](O)C3)CCC[C@@H]21 [Example 96] | 109% | < 10 nM | –
COC(=O)N1CCN(C(=O)Cc2ccc(Cl)c(Cl)c2)[C@@H]2[C@@H](N3CC[C@H](O)C3)CCC[C@@H]21 [Example 97] | 113% | < 10 nM | –
CN(C)S(=O)(=O)N1CCN(C(=O)Cc2ccc(Cl)c(Cl)c2)[C@@H]2[C@@H](N3CCCC3)CCC[C@@H]21 [Example 98] | 105% | < 10 nM | –
CC(C)NC(=O)N1CCN(C(=O)Cc2ccc(Cl)c(Cl)c2)[C@@H]2[C@@H](N3CCCC3)CCC[C@@H]21 [Example 99] | 100% | < 10 nM | –
O=C(Cc1ccc(Cl)c(Cl)c1)N1CCN(C(=O)NCc2ccccc2)[C@H]2CCC[C@H](N3CCCC3)[C@H]21 [Example 100] | 105% | < 10 nM | –
COC(=O)COC(=O)N1CCN(C(=O)Cc2ccc(Cl)c(Cl)c2)[C@@H]2[C@@H](N3CCCC3)CCC[C@@H]21 [Example 101] | 99% | < 10 nM | –
CS(=O)(=O)N1CCN(C(=O)Cc2ccc(Cl)c(Cl)c2)[C@@H]2[C@@H](N3CCCC3)CCC[C@@H]21 [Example 102] | 106% | < 10 nM | –
COC(=O)C(=O)N1CCN(C(=O)Cc2ccc(Cl)c(Cl)c2)C2C(N3CCCC3)CCCC21.Cl (centres unmarked) [Example 103] | – | – | % activation functional assay at 1 μM: 98%; EC50 (read-out: GTPγS EC50): < 10 nM
COC(=O)COC(=O)N1CCN(C(=O)Cc2ccc(Cl)c(Cl)c2)[C@@H]2[C@@H](N3CC[C@@H](O)C3)CCC[C@@H]21 [Example 105] | 116% | < 10 nM | –
COC(=O)COC(=O)N1CCN(C(=O)Cc2ccc(Cl)c(Cl)c2)[C@@H]2[C@@H](N3CC[C@H](O)C3)CCC[C@@H]21 [Example 106] | 92% | < 10 nM | –
CC(C)OC(=O)COC(=O)N1CCN(C(=O)Cc2ccc(Cl)c(Cl)c2)[C@@H]2[C@@H](N3CCCC3)CCC[C@@H]21 [Example 107] | 104% | < 10 nM | –
COC(=O)N1CCN(C(=O)Cc2ccc(C(F)(F)F)c(Cl)c2)[C@@H]2[C@@H](N3CC[C@H](O)C3)CCC[C@@H]21 [Example 108] | 100% | < 10 nM | –
COC(=O)N1CCN(C(=O)Cc2ccc(F)c(Cl)c2)[C@@H]2[C@@H](N3CC[C@H](O)C3)CCC[C@@H]21 [Example 109] | 110% | < 10 nM | –
COC(=O)N1CCN(C(=O)Cc2ccc(F)c(Cl)c2)C2C(N3CCC(O)C3)CCCC21.Cl (centres unmarked) [Example 110] | – | – | % activation functional assay at 1 μM: 92%; EC50 (read-out: GTPγS EC50): 10 to 100 nM
COC(=O)N1CCN(C(=O)Cc2ccc(C(F)(F)F)c(Cl)c2)[C@@H]2[C@@H](N3CC[C@@H](O)C3)CCC[C@@H]21 [Example 113] | 102% | < 10 nM | –
COC(=O)N1CCN(C(=O)Cc2ccc(Cl)c(F)c2)C2C(N3CCC(O)C3)CCCC21.Cl (centres unmarked) [Example 115] | – | – | % activation functional assay at 1 μM: 103%; EC50 (read-out: GTPγS EC50): 10 to 100 nM
CN(C)C(=O)C(=O)N1CCN(C(=O)Cc2ccc(Cl)c(Cl)c2)[C@@H]2[C@@H](N3CCCC3)CCC[C@@H]21.Cl [Example 116] | – | – | % activation functional assay at 1 μM: 111%; EC50 (read-out: GTPγS EC50): 10 to 100 nM
